Measurements from patent US20250154212A1, “METHOD OF DISRUPTING MEMORY AND LIPOPEPTIDE FOR USE IN SUCH METHOD” (The Research Foundation for The State University of New York, priority 2023, published 2025).

Columns and labels:
[1] = tested on: KIBRA with novel PKCs (PKCδ, PKCε, PKCη, PKCθ); assay: BiFC assay of KIBRA with novel PKCs in HEK293T cells; type: cell-based, human
Procedure: KIBRA-PKMζ BiFC was performed as previously described (28), using pVen1-FLAG-KIBRA and pVen2-HA-PKMζ, in which PKMζ was cloned between EcoR1 and BamH1 sites. The constructs pVen1 and pVen2 encode the N-terminus (amino acids 1-154) and C-terminus (amino acids 155-238) of the Venus protein, respectively, and the Venus fragments were on the N-terminal of the fusion proteins. pVen2-HA-PKMζ[PKCι/λ-P291Q;F297S] was generated by site-directed mutagenesis using forward-cctggagAagcAAatceggatcccccggtCcctgtccgte and reverse-gacggacaggGaccgggggatccggatTTgctTctccagg primers and the QuickChange II XL Site-Directed Mutagenesis Kit (Agilent Technologies), following manufacturer's instructions. Additional pVen2-HA-PKC isoforms and pVen2-HA-CaMKIIα in the pVen2-HA vector were generated by cloning the N-terminus of the coding sequence of each kinase (table S1) to obtain an in-frame fusion at the C-terminus of the pVen2-HA. Human versions of KIBRA and kinases were used, and all PCR amplified sequences and constructs were verified by DNA sequencing.
HEK293T cells were cultured in Dulbecco's Modified Eagle's Medium supplemented with 10% heat-inactivated fetal bovine serum, 100 U/ml penicillin, […] streptomycin, 2 mM glutamine, and 10 mM HEPES in a T75 tissue culture flask with canted neck and ventilated cap. […]

[2] = tested on: auditory-cued fear/threat memory in PKMζ-null mice; assay: Auditory-cued fear/threat conditioning, infusion into basolateral amygdala, PKMζ-null mice; type: in vivo, mouse; settings: 6 nmol in 0.3 μL into each BLA, tested 1 day post-injection
Procedure: Mice were 8-10 weeks old at the time of cannulation and 9-11 weeks old at the beginning of behavioral experiments. Mice were housed with cage-mates in plastic cages and provided with food and water ad libitum. Mice were maintained on a 12 h light/dark cycle (lights on at 7:00 am) and behavioral experiments began at 9:00 am.
Mice were injected intraperitoneally (1 ml/100 g body weight) with an anesthetic cocktail containing ketamine (10 mg/ml) and xylazine (2 mg/ml). Mice were provided with analgesic treatment prior to surgery (carprofen; 5 mg/ml). Guide cannulae (Plastics One, Roanoke, VA) were implanted bilaterally in the basolateral amygdala (from bregma: AP-1.7 mm; L+/−3.0 mm; DV-4.4 mm) and secured to the skull with three jeweler's screws and dental cement. Antisedan (0.66 ml/100 g body weight of 0.5 mg drug/ml solution) was given via i.p. injection after surgery to reverse the anesthesia.
For 7 days following surgery, mice were handled by freely exploring the experimenter's palm for 2-5 min. Mice were habituated, trained, and tested in the same conditioning box (Coulbourn Habitest, Coulboum Instruments) with differing floors and walls to produce two different contexts (Context A and Context B). […] Freezing behavior (cessation of all movement except breathing) during the tone on Test 1 and Test 2 was scored by an experimenter blind to the conditions. […]

For `O=S(=O)(O)c1cc(O)c2c(S(=O)(=O)O)cc(S(=O)(=O)O)cc2c1` [ζ-stat, 1-naphthol-3,6,8-trisulphonic acid], the “effect on BiFC of KIBRA with novel PKCs” value [1] was “has no effect” and the “auditory-cued fear/threat memory retention (% time freezing to tone)” value [2] was “not in PKMζ-null mice”.
